Experimental data as given in patent US20180186755A1, “LYSYL OXIDASE-LIKE 2 INHIBITORS AND USES THEREOF” (PharmAkea, Inc., priority 2015, published 2018).

Key:
human LOXL2 = target: T1, human LOXL2 (Homo sapiens, UniProt Q9Y4K0); assay: Human LOXL2 amine oxidase activity assay (Amplex Red fluorescence); assay type: biochemical; conditions: concentrated conditioned media from CHO cells stably expressing human LOXL2; 2 h at 37° C. preincubation; DAP substrate
T1 construct: expressed in transfected cells; 10-20x concentrated conditioned media used as the enzyme source
T1 sequence (Q9Y4K0 26-774): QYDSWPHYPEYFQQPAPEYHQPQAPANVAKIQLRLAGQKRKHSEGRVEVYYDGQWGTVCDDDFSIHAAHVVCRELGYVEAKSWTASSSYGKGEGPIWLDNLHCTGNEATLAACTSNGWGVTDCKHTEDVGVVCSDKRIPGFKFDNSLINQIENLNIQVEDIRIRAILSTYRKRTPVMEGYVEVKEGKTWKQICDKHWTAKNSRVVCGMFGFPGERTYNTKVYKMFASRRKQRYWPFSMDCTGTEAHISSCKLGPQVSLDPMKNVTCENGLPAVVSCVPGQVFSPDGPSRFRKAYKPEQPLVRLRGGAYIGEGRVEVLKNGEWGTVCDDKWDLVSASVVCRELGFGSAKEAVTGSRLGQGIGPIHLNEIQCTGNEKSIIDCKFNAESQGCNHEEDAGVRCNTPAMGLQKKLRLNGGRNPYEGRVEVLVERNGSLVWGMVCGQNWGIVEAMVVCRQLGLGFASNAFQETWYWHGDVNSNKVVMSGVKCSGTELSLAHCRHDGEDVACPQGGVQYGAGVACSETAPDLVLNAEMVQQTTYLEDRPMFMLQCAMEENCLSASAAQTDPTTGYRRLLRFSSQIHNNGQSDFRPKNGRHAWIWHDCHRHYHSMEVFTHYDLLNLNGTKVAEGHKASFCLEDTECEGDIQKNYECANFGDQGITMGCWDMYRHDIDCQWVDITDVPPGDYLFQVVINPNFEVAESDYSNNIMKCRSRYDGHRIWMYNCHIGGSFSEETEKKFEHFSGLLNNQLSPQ
How it was run: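 Enzyme source: 10-20× concentrated conditioned media from CHO cells stably expressing human LOXL2, preincubated with compound for 2 h at 37° C in 50 mM borate pH 8. Reaction started with 1,5-diaminopentane plus Amplex Red/HRP; fluorescence (ex 544/em 590) read kinetically for 1 hour, activity from linear slope.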

[1] = tested on: bleomycin-induced lung fibrosis in C57Bl/6 male mice; assay: Mouse oropharyngeal bleomycin model of lung fibrosis; assay type: in vivo; conditions: dosed prophylactically at 60 mg/kg p.o.
Experimental: Example B-3: Mouse Oropharyngeal Bleomycin Model of Lung Fibrosis
Lung fibrosis is induced in C57Bl/6 male mice by administering bleomycin (0.1-4 U/kg) via oropharyngeal instillation. Mice are either pretreated with vehicle or test compound (1 day to 1 hour) orally, intraperitoneally, intravenously or subcutaneously before bleomycin installation (prophylactic dosing) or 7-14 days post bleomycin instillation (therapeutic dosing). The route and frequency of dosing are based on previously determined pharmacokinetic properties for the LOXL2 inhibitor in mouse. After bleomycin instillation animals are monitored daily for weight loss and clinical signs for 14-28 days prior to sacrifice. […] For histological examination, lung slices are stained with Masson's trichrome or Picro-Sirius red to measure cross-linked collagen as an indicator of fibrosis and an Ashcroft score of lung fibrotic and inflammatory damage determined. In addition, immunohistochemistry of fibrotic proteins such as a-smooth muscle actin can be recorded. […] After the acid hydrolysis, 25-100 μl of the supernatant is dried down, resuspended in 25 μl water and the hydroxyproline content determined by the addition of 0.5 ml Chloramine T solution (140 mg Chloramine T in 6.5 ml ddH20+1 ml n-propanol+2.5 ml 1M sodium acetate) and incubation at room temperature for 20 min. […]

Structure (SMILES)	IC50 (human LOXL2)	efficacy in mouse oropharyngeal bleomycin model of lung fibrosis [1]
NCc1cc(N2CCC(C(=O)Nc3ccccc3)CC2)ncn1 [Compound 1-103, 1-(6-(Aminomethyl)pyrimidin-4-yl)-N-phenylpiperidine-4-carboxamide]	0.1 to 1 µM	–
NCc1cc(N2CCN(C(=O)c3ccccc3)CC2)ncn1 [Compound 1-104, (4-(6-(Aminomethyl)pyrimidin-4-yl)piperazin-1-yl)(phenyl)methanone]	> 1 µM	–
NCc1cc(N2CCN(C(=O)Nc3ccccc3)CC2)ncn1 [Compound 1-105, 4-(6-(Aminomethyl)pyrimidin-4-yl)-N-phenylpiperazine-1-carboxamide]	0.1 to 1 µM	–
NCc1cc(N2CCN(C(=O)Cc3ccccc3)CC2)ncn1 [Compound 1-106, 1-(4-(6-(Aminomethyl)pyrimidin-4-yl)piperazin-1-yl)-2-phenylethanone]	0.1 to 1 µM	–

Second part, led by results:

IC50 (human LOXL2)	Structure (SMILES)	efficacy in mouse oropharyngeal bleomycin model of lung fibrosis [1]
< 0.1 µM	Cl.NCc1cc(Oc2cccc(C(=O)NCc3ccnc(Cl)c3)c2)ncn1 [Compound 1-55, 3-((6-(Aminomethyl)pyrimidin-4-yl)oxy)-N-((2-chloropyridin-4-yl)methyl)benzamide]	efficacious
< 0.1 µM	NCc1cc(Oc2cccc(C(=O)N3CCN(c4ccccc4)CC3)c2)ncn1 [Compound 1-72, (3-((6-(Aminomethyl)pyrimidin-4-yl)oxy)phenyl)(4-phenylpiperazin-1-yl)methanone]	efficacious
< 0.1 µM	NCc1cc(N2C(=O)CCc3c(OCc4ccccc4)cccc32)ncn1 [Compound 1-107, 1-(6-(Aminomethyl)pyrimidin-4-yl)-5-(benzyloxy)-3,4-dihydroquinolin-2(1H)-one]	–
